US4966907A, “6-substituted 5-hydroxy-2,3-dihydrobenzofurans as inhibitors of leukotriene biosynthesis” (Merck & Co., Inc., priority 1988, dated 1990)

System: leukotriene biosynthesis in human polymorphonuclear leukocytes
Experiment: not given
Conditions: known inhibitors of leukotriene biosynthesis; cited from earlier work

Row | Compound | activity in the human polymorphonuclear leukocytes assay
1 | CC(Cc1ccc(O)c(O)c1)C(C)Cc1ccc(O)c(O)c1 (centres unmarked) [nordihydroguaiacetic acid, reference compound] | active
2 | O=C1CCN(c2ccccc2)N1 [phenidone, reference compound] | active

System: LTB4 production in isolated human polymorphonuclear leucocytes (PMN)
Experiment: inhibition of LTB4 production in isolated human polymorphonuclear leukocytes (PMN), A23187-stimulated, radioimmunoassay
Format: cell-based
Conditions: Homo sapiens, Leucocyte, 5 min; calcium ionophore A23187 10 μM, 5 min at 37° C., 2.5×10^5 cells; read-out: Human Polymorphonuclear Leucocyte Activity IC50
From the text: A. Preparation of Human PMN
Human blood is obtained by antecubital venepuncture from consenting volunteers who denied having taken medication within the previous 7 days. The blood is immediately added to 10% (v/v) trisodium citrate (0.13M) or 5% (v/v) sodium heparin (1000 IU/mL). PMNs are isolated from anticoagulated blood by dextran sedimentation and centrifugation through Ficoll Hypaque (specific gravity 1.077), essentially as described by Boyum. (Boyum, A., Scand. J. Clin. Lab. Invest 1968, 21 (Supp 97), 77). Contaminating erythrocytes are removed by lysis following exposure to ammonium chloride (0.16M) in Tris buffer (pH 7.65), and the PMNs resuspended at 5×10^5 cells/mL in HEPES (15 mM) buffered Hanks balanced salt solution containing Ca^2+ (1.4 mM) and Mg^2+ (0.7 mM), pH 7.4. Viability is assessed by Trypan blue exclusion and is typically greater than 98%.
B. Generation and Radiommumoassay of LTB4
PMNs 0.5 mL; 2.5×10^5 cells) are placed in plastic tubes and incubated (37° C., 2 min) with test compounds at the desired concentration or vehicle control (DMSO, final concentration 0.2%). The synthesis of leukotriene B4 (LTB4) is initiated by the addition of calcium ionophore A23187 (final concentration 10 μM) or vehicle on control samples and allowed to proceed for 5 minutes at 37° C. The reactions are then terminated by the addition of cold methanol (0.25 mL) and samples of the entire PMN reaction mixture are removed for radiommunoassay of LTB4.
Samples (50 μl) of authentic LTB4 of known concentration in radiommunoassay buffer (RIA) buffer (potassium phosphate 1 mM; disodium EDTA 0.1 mM; Thimerosal 0.025 mM; gelatin 0.1%, pH 7.3) or PMN reaction mixture diluted 1:1 with RIA buffer are added to reaction tubes.
Thereafter [3H]LTB4 (10 nCu in 100 μl RIA buffer) and LTB4 antiserum (100 μL of a 1:3000 dilution in RIA buffer) are added and the tubes vortexed. Reactants are allowed to equilibrate by incubation overnight at 4° C. To separate antibody bound from free LTB4, aliquots (50 μL) of activated charcoal (3% activated charcoal in RIA buffer containing 0.25% Dextran T-70) were added, the tubes vortexed, and allowed to stand at room temperature for 10 minutes prior to centrifugation (1500×g; 10 min; 4° C.). The supernatents containing antibody-bound LTB4 are decanted into vials and Aquasol 2 (4 mL) is added. Radioactivity is quantified by liquid scintillation spectrometry. […] The specificity of the antiserium and the sensitivity of the procedure have been described in detail elsewhere. (Rokach, J.; Hayes, E. C.; Girard, Y.; Lombardo. D. L.; Maycock, A. L.; Rosenthal, A. S.; Young, R. N.; Zamboni, R.; Zweerink, H. J. Prostaglandins Leukotrienes and Medicine 1984, 13, 21). The amount of LTB4 produced in test and control (approx. 20 ng/10^6 cells) samples are then calculated. Inhibitory dose response curves are constructed using a four-parameter algorithm and from these the IC50 values are determined.

Row | IC50 [nM] | Compound
3 | 49 | CCCc1cc2c(c(Br)c1O)CCO2 [Br CH2 CH3 CH3, 2,3-dihydro4-bromo-6-propyl-5-benzofuranol]
4 | 19 | Cc1c(O)c(CCCSc2ccccc2)cc2c1CCO2 [CH3 (CH2)3 SC6 H5, 2,3-dihydro-4-methyl-6-(3-(phenylthio)propyl)5-benzofuranol]
5 | 77 | OCCc1cccc(OCCCc2cc3c(cc2O)CCO3)c1 [H (CH2)3 OC6 H4-3-(CH2)2 OH, 2,3-Dihydro-6-(3-(3-(2-hydroxyethyl)-phenoxy)propyl)-5-benzofuranol]
6 | 9 | CCCc1ccc(OCCCc2cc3c(cc2O)CCO3)cc1 [H (CH2)3 OC6 H4-4-(CH2)2 CH3, 2,3-dihydro 6-(3-(4-propylphenoxy)propyl)-5-benzofuranol]
7 | 41 | OCCc1ccc(OCCCc2cc3c(cc2O)CCO3)cc1 [H (CH2)3 OC6 H4-4-(CH2)2 OH, 2,3-dihydro-6-(3-(4-(2-hydroxyethyl)phenoxy)propyl)-5-benzofuranol]
8 | 55 | Oc1cc2c(cc1CCCOc1ccc(Cl)cc1)OCC2 [H (CH2)3 OC6 H4-4-Cl, 2,3-Dihydro-6-(3-(4-chlorophenoxy)propyl)-5-benzofuranol]
9 | 28 | Oc1cc2c(cc1CCCOc1ccc(F)cc1)OCC2 [H (CH2)3 OC6 H4-4-F, 2,3-dihydro-6-(3-(4-fluorophenoxy)propyl)5-benzofuranol]
10 | 57 | Oc1cc2c(cc1CCCOc1ccccc1)OCC2 [H (CH2)3 OC6 H5, 2,3-dihydro-6-(3-phenoxypropyl)-5-benzofuranol]
11 | 19 | Oc1cc2c(cc1CCCSc1ccccc1)OCC2 [H (CH2)3 SC6 H5, 2,3-dihydro-6-(3-(phenylthio)propyl)-5-benzofuranol]
12 | 51 | Oc1cc2c(cc1OCCCc1ccccc1)OCC2 [H O(CH2)3 C6 H5, 2,3-dihydro-6-(3-phenylpropoxy)-5-benzofuranol]
13 | 65 | COC(=O)c1ccccc1OCCCOc1cc2c(cc1O)CCO2 [H O(CH2)3 OC6 H5-2-CO2 CH3, 2-(3-((2,3-dihydro-5-hydroxy-6-benzofuranyl)oxy)propoxy)benzoic acid methyl ester]
14 | 56 | COC(=O)c1cccc(OCCCOc2cc3c(cc2O)CCO3)c1 [H O(CH2)3 OC6 H5-3-CO2 CH3, 3-(3-((2,3-dihydro-5-hydroxy-6-benzofuranyl)oxy)propoxy)benzoic acid methyl ester]
15 | 72 | COC(=O)Cc1ccc(OCCCOc2cc3c(cc2O)CCO3)cc1 [H O(CH2)3 OC6 H5-4-CH2 CO2 CH3, 4-(3-((2,3-dihydro-5-hydroxy-6-benzofuranyl)oxy)propoxy)benzeneacetic acid methyl ester]
16 | 71 | COC(=O)c1ccc(OCCCOc2cc3c(cc2O)CCO3)cc1 [H O(CH2)3 OC6 H5-4-CO2 CH3, 4-(3-((2,3-dihydro-5-hydroxy-6-benzofuranyl)oxy)propoxy)benzoic acid methyl ester]
17 | 66 | Oc1cc2c(cc1SCCc1ccccc1)OCC2 [H S(CH2)2 C6 H5, 2,3-dihydro 6 (2 phenylethyl)thio-5-benzofuranol]
18 | 28 | Oc1cc2c(cc1SCCCc1ccccc1)OCC2 [H S(CH2)3 C6 H5, 2,3-dihydro-6-(3-phenylpropyl)thio-5-benzofuranol]

Same assay, conditions: Leucocyte, 5 min; standard compounds; human PMN, A23187 10 μM, 5 min at 37° C.; read-out: IC50 values for LTB4 inhibition

Row | IC50 [nM] | Compound
19 | 86 | CC(Cc1ccc(O)c(O)c1)C(C)Cc1ccc(O)c(O)c1 (centres unmarked) [nordihydroguaiacetic acid, reference compound]
20 | 9250 | O=C1CCN(c2ccccc2)N1 [phenidone, reference compound]
